# Activity calls are given as the source filed them.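 How the source made its calls: active means IC50 of 10 µM or lower; inactive means IC50 above 10 µM.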
# Target: Guanyl-specific ribonuclease T1 (Aspergillus oryzae (strain ATCC 42149 / RIB 40)) (UniProt P00651)
# Test: dose-dependent blockade of Aspergillus RNase T1 – biochemical, fluorescence polarization, IC50, counter-screen for TPT1 inhibitor project, late-stage follow-up (AID 2837)
# Details: RNase T1 cleavage of B-U6G-AF
# Sequence of Guanyl-specific ribonuclease T1 (Aspergillus oryzae (strain ATCC 42149 / RIB 40)) (P00651 whole entry, looked up): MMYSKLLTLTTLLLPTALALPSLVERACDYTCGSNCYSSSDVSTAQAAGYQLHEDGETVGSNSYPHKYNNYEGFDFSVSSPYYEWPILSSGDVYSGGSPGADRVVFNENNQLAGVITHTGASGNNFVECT
row,Structure (SMILES),IC50
1,NS(=O)(=O)c1cc(C(=O)NC2CCSc3ccccc32)ccc1Cl (stereo not given),> 49.8 µM (inactive)
2,OC(Cn1cncn1)(Cn1cncn1)c1ccc(F)cc1F,> 49.8 µM (inactive)
3,O=c1oc2c(O)c(O)cc3c(=O)oc4c(O)c(O)cc1c4c23,> 49.8 µM (inactive)
4,NC(=O)c1cc[n+](CC2=C(C(=O)O)N3C(=O)[C@@H](NC(=O)C(c4ccccc4)S(=O)(=O)O)[C@H]3SC2)cc1 (stereo not given in full),> 49.8 µM (inactive)
5,Cc1ccccc1N1C(=O)/C(=C/c2ccco2)C(=O)NC1=S,inactive
6,COc1ccc(OC)c(N2C(=O)/C(=C/c3ccco3)C(=O)NC2=S)c1,inactive
7,CC1=C(C#N)C(=O)N(C2CCS(=O)(=O)C2)C(=O)/C1=C\c1ccco1 (stereo not given),> 49.8 µM (inactive)
8,Cc1ccc(N2C(=O)NC(=O)/C(=C\c3ccc([N+](=O)[O-])o3)C2=O)cc1,inactive
9,Cc1[nH]n(-c2ccc(S(=O)(=O)O)cc2)c(=O)c1N[N-]c1ccc(C2=CC(=O)/C(=N\[N-]c3ccc4c(S(=O)(=O)O)cc(S(=O)(=O)O)c(N)c4c3O)C=C2)cc1O.[Cu+].[Cu+],> 49.8 µM (inactive)
10,Cc1cc(C)n(Cc2ccc(C(=O)NN=Cc3ccc(-c4ccc([N+](=O)[O-])cc4)o3)o2)n1,inactive
